Each block holds one molecule with its values, some of them ahead of it. Calls of active or inactive are those of the source.
Assays:
[1] = molecular target: T1, Heat shock factor protein 1 (Mus musculus, UniProt P38532); assay: decrease of HSF1-responsive luciferase luminescence – cell-based, NIH3T3, dose retest, confirmation (AID 2382); type: functional;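 note: NIH3T3 fibroblasts with HSF1-driven luciferase reporter stressed by proteasome inhibitor MG132; luminescence from HSF1-driven luciferase expression after 8 hours of MG132 stress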
T1 sequence (P38532 whole entry): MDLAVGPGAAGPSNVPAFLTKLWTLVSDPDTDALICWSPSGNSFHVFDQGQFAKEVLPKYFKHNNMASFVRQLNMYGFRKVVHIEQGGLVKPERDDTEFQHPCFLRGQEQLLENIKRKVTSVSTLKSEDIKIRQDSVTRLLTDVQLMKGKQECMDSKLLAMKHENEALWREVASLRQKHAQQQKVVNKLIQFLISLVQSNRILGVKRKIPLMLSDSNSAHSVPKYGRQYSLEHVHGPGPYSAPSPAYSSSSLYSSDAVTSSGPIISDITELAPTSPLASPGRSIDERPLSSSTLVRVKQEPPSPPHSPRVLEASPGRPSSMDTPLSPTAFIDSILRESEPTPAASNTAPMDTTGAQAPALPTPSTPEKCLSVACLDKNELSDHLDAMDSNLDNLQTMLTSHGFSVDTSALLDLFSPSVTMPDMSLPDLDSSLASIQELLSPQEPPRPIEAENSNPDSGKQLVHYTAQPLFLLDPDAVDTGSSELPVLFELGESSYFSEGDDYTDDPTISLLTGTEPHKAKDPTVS

[2] = molecular target: T2, Microphthalmia-associated transcription factor (Homo sapiens, UniProt O75030); assay: reducers of TRPM1 reporter luminescence, concentration series – cell-based, SK-MEL-5, cherry-picked, set 3, MITF inhibitor project, dose response (AID 493073); type: functional;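 note: SK-MEL-5 melanoma cells with luciferase driven by the MITF target TRPM1 promoter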
T2 sequence (O75030 whole entry): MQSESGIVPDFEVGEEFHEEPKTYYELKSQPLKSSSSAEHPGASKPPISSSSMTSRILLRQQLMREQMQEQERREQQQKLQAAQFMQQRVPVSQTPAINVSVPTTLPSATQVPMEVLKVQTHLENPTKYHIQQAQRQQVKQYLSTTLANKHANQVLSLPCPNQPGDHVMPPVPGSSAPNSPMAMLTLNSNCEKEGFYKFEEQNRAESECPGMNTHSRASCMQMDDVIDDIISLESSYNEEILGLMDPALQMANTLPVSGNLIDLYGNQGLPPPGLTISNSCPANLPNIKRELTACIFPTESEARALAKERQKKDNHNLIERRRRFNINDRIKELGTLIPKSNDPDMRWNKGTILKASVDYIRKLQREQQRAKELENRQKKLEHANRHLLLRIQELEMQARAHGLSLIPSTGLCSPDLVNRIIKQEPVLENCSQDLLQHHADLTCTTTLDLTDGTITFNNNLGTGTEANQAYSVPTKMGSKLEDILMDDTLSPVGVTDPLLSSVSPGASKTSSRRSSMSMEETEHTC

[3] = molecular target: Caspase-7 (Homo sapiens, UniProt P55210); assay: potency of procaspase-7 enzyme activation – biochemical, absorbance, human, dual procaspase-3/-7 activator project, dose response (AID 504330)
[4] = molecular target: T3, Caspase-3 (Homo sapiens, UniProt P42574); assay: activators of human procaspase-3 D3A mutant – biochemical, absorbance, PC-3 D3A mutant, counter-screen for dual procaspase-3/7 activator project, dose response (AID 504328)
T3 sequence (P42574 whole entry): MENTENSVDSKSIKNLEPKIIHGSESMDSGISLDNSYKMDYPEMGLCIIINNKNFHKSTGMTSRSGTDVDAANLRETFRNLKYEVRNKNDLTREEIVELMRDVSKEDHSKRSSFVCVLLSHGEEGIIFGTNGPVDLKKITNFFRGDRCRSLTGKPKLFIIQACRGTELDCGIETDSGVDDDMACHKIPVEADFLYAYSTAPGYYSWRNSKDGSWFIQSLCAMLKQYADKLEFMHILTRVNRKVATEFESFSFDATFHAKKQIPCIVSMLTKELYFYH

[5] = molecular target: Wee1-like protein kinase (Homo sapiens, UniProt P30291); assay: HeLa cell cycle G2/M accumulation – FACS, mechanism study for Wee1 degradation inhibitor project, late-stage follow-up, panel member Wee1 Degradation (AID 2088)
[6] = molecular target: G2/mitotic-specific cyclin-B1 (Homo sapiens, UniProt P14635); assay: HeLa cell cycle G2/M accumulation – FACS, mechanism study for Wee1 degradation inhibitor project, late-stage follow-up, panel member Cyclin B Degradation (AID 2088)
[7] = molecular target: Heat shock protein HSP 90-alpha (Homo sapiens, UniProt P07900); type: functional, organism-based
[8] = molecular target: Cyclin-dependent kinase 5/CDK5 activator 1 (Homo sapiens, UniProt Q00535); assay: blockade of human CDK5 activity – biochemical, cherry-picked samples, set 2, dose response (AID 504545)
[9] = molecular target: Dual specificity tyrosine-phosphorylation-regulated kinase 1A (Rattus norvegicus, UniProt Q63470); type: biochemical, Homo sapiens
[10] = PhoP-dependent GFP reporter suppression – synthesized compounds, round 3, SAR follow-up (AID 434996); type: functional
[11] = molecular target: Metabotropic glutamate receptor 4 (Rattus norvegicus, UniProt P31423); assay: Modulation of the Metabotropic Glutamate Receptor mGluR4: Rat PAM Potency. [Related pubchem assays (depositor defined):AID2437, AID2807]; type: functional
[12] = molecular target: Metabotropic glutamate receptor 4 (Homo sapiens, UniProt Q14833); assay: Modulation of the Metabotropic Glutamate Receptor mGluR4: Potency at human mGluR4. Modulation of intracellular Ca2+ using Fluo-4, AM, in CHO expressing recombinant receptor [Related pubchem assays (depositor defined):AID2437, AID2807]; type: functional, cell-based
[13] = molecular target: Polyadenylate-binding protein 1 (Homo sapiens, UniProt P11940); assay: blockers of PABP interaction with poly(A) – biochemical, fluorescence polarization, […] (AID 2014)
[14] = molecular target: Eukaryotic translation initiation factor 4H (Homo sapiens, UniProt Q15056); assay: eIF4H binding inhibition – biochemical, uHTS, fluorescence polarization, translation initiation inhibitor project, primary screen (AID 2012)

Sequence of Cyclin-dependent kinase 5/CDK5 activator 1 (Q00535 whole entry): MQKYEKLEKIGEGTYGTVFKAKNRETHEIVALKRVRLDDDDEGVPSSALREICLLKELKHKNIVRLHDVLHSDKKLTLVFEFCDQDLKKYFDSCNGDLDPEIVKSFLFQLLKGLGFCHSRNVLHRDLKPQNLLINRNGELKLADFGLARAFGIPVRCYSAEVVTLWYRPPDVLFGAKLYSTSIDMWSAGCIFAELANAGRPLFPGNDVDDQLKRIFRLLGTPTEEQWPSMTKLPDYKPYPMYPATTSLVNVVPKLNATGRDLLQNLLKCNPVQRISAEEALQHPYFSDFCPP
Sequence of Cyclin-dependent kinase 5/CDK5 activator 1 (Q15078 whole entry, further chain): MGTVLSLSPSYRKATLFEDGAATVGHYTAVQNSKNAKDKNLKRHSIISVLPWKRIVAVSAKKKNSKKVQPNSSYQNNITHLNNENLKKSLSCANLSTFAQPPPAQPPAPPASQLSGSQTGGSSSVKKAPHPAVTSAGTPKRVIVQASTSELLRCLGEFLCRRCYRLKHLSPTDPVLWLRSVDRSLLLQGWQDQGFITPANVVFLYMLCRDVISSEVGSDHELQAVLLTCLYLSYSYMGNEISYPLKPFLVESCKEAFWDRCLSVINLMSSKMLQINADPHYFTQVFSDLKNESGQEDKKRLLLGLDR
Sequence of Polyadenylate-binding protein 1 (P11940 whole entry): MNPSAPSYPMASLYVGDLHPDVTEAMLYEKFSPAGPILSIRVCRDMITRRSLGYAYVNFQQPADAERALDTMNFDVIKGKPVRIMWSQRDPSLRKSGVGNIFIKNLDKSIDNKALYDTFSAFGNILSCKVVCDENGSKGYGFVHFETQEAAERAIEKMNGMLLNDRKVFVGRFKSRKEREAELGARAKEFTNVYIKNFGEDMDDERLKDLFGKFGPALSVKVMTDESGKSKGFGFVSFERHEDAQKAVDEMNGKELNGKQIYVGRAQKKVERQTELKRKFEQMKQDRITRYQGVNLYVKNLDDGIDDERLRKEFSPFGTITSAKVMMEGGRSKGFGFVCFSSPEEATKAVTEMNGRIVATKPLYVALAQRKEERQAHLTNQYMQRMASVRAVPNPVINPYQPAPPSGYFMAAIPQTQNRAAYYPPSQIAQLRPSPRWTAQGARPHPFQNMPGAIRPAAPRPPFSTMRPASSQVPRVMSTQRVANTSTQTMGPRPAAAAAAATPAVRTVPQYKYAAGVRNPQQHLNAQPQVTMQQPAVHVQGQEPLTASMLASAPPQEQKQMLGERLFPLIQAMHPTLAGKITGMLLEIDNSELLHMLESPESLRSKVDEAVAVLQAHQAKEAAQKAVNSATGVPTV
Sequence of G2/mitotic-specific cyclin-B1 (P14635 whole entry): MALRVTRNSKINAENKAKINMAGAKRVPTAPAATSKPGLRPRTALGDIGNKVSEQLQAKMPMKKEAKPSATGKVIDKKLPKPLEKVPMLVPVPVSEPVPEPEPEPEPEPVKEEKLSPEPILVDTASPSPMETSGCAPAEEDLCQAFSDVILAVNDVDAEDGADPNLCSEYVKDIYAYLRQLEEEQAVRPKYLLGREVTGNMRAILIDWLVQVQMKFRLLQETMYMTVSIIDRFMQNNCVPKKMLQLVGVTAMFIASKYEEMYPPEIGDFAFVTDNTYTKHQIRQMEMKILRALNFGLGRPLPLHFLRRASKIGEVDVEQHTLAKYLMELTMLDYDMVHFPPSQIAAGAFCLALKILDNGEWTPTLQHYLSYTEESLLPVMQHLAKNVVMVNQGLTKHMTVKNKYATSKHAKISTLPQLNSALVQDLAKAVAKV
Sequence of Wee1-like protein kinase (P30291 whole entry): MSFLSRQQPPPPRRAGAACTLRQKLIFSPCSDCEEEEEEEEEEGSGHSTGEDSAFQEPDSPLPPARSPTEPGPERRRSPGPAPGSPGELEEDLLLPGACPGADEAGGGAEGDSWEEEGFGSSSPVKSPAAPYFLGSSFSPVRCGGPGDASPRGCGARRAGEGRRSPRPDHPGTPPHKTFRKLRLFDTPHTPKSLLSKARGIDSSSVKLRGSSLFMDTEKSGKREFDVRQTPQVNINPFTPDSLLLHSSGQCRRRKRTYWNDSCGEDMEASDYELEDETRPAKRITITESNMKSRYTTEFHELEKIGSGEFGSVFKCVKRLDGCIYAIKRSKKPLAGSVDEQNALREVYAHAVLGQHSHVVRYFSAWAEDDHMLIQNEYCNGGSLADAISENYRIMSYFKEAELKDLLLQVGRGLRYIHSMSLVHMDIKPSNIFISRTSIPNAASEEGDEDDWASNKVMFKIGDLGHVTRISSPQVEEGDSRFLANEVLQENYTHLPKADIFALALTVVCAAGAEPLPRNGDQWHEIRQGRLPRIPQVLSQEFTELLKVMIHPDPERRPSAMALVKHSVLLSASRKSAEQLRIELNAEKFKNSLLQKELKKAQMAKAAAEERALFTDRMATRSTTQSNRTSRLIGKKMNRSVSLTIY
Sequence of Metabotropic glutamate receptor 4 (Rattus norvegicus, UniProt P31423) (P31423 whole entry): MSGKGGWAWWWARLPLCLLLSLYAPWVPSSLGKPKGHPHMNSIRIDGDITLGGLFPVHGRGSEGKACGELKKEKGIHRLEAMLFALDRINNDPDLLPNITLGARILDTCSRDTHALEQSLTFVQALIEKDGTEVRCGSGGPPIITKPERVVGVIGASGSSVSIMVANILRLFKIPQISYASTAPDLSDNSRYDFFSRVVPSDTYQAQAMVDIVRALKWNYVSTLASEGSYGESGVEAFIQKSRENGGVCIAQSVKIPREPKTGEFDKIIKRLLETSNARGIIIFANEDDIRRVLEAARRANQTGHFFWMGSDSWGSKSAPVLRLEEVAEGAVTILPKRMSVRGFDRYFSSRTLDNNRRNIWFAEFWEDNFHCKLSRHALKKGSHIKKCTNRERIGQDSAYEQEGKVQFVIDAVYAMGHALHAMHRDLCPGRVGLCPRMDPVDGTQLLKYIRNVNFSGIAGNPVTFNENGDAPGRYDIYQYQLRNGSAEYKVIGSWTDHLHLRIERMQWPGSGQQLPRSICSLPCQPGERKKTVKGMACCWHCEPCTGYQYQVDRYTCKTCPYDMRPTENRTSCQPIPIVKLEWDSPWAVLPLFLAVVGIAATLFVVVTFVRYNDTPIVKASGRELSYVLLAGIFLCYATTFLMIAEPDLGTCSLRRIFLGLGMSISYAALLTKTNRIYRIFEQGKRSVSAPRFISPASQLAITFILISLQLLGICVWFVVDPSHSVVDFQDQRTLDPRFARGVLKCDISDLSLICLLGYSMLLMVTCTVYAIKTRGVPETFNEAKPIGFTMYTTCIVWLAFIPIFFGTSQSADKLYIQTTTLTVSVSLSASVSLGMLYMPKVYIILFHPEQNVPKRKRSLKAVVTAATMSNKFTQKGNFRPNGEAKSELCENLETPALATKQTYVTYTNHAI
Sequence of Metabotropic glutamate receptor 4 (Homo sapiens, UniProt Q14833) (Q14833 whole entry): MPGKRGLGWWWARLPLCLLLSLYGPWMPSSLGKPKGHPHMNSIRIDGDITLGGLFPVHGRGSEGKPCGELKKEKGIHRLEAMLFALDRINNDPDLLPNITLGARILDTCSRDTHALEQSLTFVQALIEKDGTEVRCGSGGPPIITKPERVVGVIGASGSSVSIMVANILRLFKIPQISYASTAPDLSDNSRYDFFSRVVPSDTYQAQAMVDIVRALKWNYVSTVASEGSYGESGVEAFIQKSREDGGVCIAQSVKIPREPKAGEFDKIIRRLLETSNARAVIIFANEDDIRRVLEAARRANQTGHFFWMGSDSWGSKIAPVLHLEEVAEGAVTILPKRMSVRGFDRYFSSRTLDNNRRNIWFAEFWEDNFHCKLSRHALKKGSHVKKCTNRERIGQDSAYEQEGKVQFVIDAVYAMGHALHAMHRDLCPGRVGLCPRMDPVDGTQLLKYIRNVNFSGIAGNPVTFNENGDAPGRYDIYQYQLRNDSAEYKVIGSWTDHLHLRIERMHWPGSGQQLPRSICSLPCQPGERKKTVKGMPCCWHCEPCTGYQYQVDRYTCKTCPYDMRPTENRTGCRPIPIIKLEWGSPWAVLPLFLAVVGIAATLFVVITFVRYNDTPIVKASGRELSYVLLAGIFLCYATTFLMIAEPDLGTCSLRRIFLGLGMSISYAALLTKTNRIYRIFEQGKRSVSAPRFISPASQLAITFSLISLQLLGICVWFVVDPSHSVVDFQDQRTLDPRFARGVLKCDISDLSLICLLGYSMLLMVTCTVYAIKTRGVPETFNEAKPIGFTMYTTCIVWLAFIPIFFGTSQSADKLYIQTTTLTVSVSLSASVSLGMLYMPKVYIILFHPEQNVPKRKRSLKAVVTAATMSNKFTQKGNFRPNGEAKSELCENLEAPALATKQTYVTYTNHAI

- EC50 [1]: > 195 µM (not active)
- AC50 [2]: 46 µM (active)
- EC50 [3]: > 85.3 µM (inactive)
- EC50 [4]: > 85.3 µM (inactive)
Compound: O=C(Nc1ccc2c(c1)OCCO2)c1coc2ccccc2c1=O

- EC50 [5]: > 49.7 µM (inactive)
- EC50 [6]: > 49.7 µM (inactive)
Compound: CCc1cccc(NC(=O)CCCOc2cc(=O)n(C)c3ccccc23)c1

- AC50 [7]: 8.8 µM (active)
- AC50 [8]: 41.2 µM (active)
- AC50 [9]: 0.143 µM (active)
Compound: Nc1cc2c(cc1[N+](=O)[O-])-c1ccccc1C2=NO

- IC50 [10]: > 150 µM (active)
Compound: COc1ccccc1CNC(=S)Nc1ccncc1

- EC50 [11]: 9.23 µM (active)
- EC50 [12]: 12.7 µM (active)
Compound: O=C(Nc1ccc(Cl)c(Cl)c1)c1ccsc1

Compound: CN(C)CCNc1c2c(nc3ccccc13)CCC2
- IC50 [13]: 32.8 µM (active)
- IC50 [14]: 99.1 µM (active)

From ChEMBL document CHEMBL1201862, “PubChem BioAssay data set” (2004)
